According to ChEMBL document CHEMBL1158440, “Linear disulfide-containing low polymer as efficient DNA cleavage reagent” (Bioorg Med Chem Lett, 2009):
Active and inactive are the calls of the source. No cut-off for these calls is given here.

How the values were obtained:
Format in all cases: nucleic-acid assay
Nucleic Acid [1] = experiment: Induction of supercoiled Escherichia coli pUC19 cleavage assessed as formation of nicked DNA at 56 mg/L in phosphate buffered saline at pH 7.4 after 8 hrs by agarose gel electrophoresis relative to control
Nucleic Acid [2] = experiment: Induction of supercoiled Escherichia coli pUC19 cleavage assessed as formation of nicked DNA at 7 mg/L in phosphate buffered saline at pH 7.4 after 24 hrs by agarose gel electrophoresis relative to control
Nucleic Acid [3] = experiment: Induction of supercoiled Escherichia coli pUC19 cleavage assessed as formation of nicked DNA at 28 mg/L in phosphate buffered saline at pH 7.4 after 24 hrs by agarose gel electrophoresis relative to control
Calf thymus DNA = experiment: Binding affinity to calf thymus DNA assessed as change in melting temperature at 18 mg/L by spectrophotometry; conditions: Bos taurus
Nucleic Acid [4] = experiment: Induction of supercoiled Escherichia coli pUC19 cleavage assessed as formation of nicked DNA at 56 mg/L in phosphate buffered saline at pH 7.4 after 24 hrs by agarose gel electrophoresis in presence of DMSO
Nucleic Acid [5] = experiment: Induction of supercoiled Escherichia coli pUC19 cleavage assessed as formation of nicked DNA at 56 mg/L in phosphate buffered saline at pH 7.4 after 24 hrs by agarose gel electrophoresis in presence of tert-butyl alcohol
Nucleic Acid [6] = experiment: Induction of supercoiled Escherichia coli pUC19 cleavage assessed as formation of nicked DNA at 56 mg/L in phosphate buffered saline at pH 7.4 after 24 hrs by agarose gel electrophoresis relative to control
Nucleic Acid [7] = experiment: Induction of supercoiled Escherichia coli pUC19 cleavage assessed as formation of nicked DNA at 56 mg/L in phosphate buffered saline at pH 7.4 after 24 hrs by agarose gel electrophoresis in presence of NaN3
Nucleic Acid [8] = experiment: Induction of supercoiled Escherichia coli pUC19 cleavage assessed as formation of nicked DNA at 14 mg/L in phosphate buffered saline at pH 7.4 after 24 hrs by agarose gel electrophoresis relative to control
Nucleic Acid [9] = experiment: Induction of supercoiled Escherichia coli pUC19 cleavage assessed as formation of nicked DNA at 56 mg/L in phosphate buffered saline at pH 7.4 after 24 hrs by agarose gel electrophoresis in presence of potassium iodide
Nucleic Acid [10] = experiment: Induction of supercoiled Escherichia coli pUC19 cleavage assessed as formation of nicked DNA at 56 mg/L in phosphate buffered saline at pH 7.4 upto 24 hrs by agarose gel electrophoresis relative to control

| Activity (Nucleic Acid [1]) | Activity (Nucleic Acid [2]) | Activity (Nucleic Acid [3]) | ΔTm (Calf thymus DNA) | Activity (Nucleic Acid [4]) | Activity (Nucleic Acid [5]) | Activity (Nucleic Acid [6]) | Activity (Nucleic Acid [7]) | Activity (Nucleic Acid [8]) | Activity (Nucleic Acid [9]) | Activity (Nucleic Acid [10]) | Structure (SMILES) |
| --- | --- | --- | --- | --- | --- | --- | --- | --- | --- | --- | --- |
| Active | 31% | 92% | 4 °C | Active | inactive | 100% | inactive | 66% | inactive | – | O=C(CS)N1CCNCCN(C(=O)CSSCC(=O)N2CCNCCN(C(=O)CSSCC(=O)N3CCNCCN(C(=O)CSSCC(=O)N4CCNCCN(C(=O)CSSCC(=O)N5CCNCCN(C(=O)CS)CCNCC5)CCNCC4)CCNCC3)CCNCC2)CCNCC1 |
| 35% | 20% | 44% | 3.4 °C | – | – | 63% | – | 24% | – | 92% | O=C(CS)N1CCNCCN(C(=O)CS)CCNCC1 |
